Test results as given in patent EP3002287B1, “Thiochromeno[2,3-c]quinolin-12-one derivatives and their use as topoisomerase inhibitors” (National Defense Medical Center, priority 2014, dated 2016).

How the values were obtained:
DU-145 [1] = assay: MTT assay for cell cytotoxicity; type: cell-based, human; conditions: Homo sapiens, 72 h, at least three independent experiments, read-out: MTT assay (IC50 ± SD) DU-145
In short: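 Seeded cells pre-incubated 24 h, then treated 72 h with 0.15–15 µM compound in RPMI-1640/5% FBS at 37 °C. MTT (1 mg/mL) added for 4 h, formazan dissolved in DMSO, absorbance at 560 nm; IC50 from mean of ≥3 independent experiments.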

PC-3 = assay: MTT assay for cell cytotoxicity; type: cell-based, human; conditions: Homo sapiens, 72 h, at least three independent experiments, read-out: MTT assay (IC50 ± SD) PC-3
RPMI-8226 = assay: NCI in vitro 60-cell drug screen (SRB assay); type: cell-based; conditions: RPMI-8226 (Leukemia); 10^-5 molar concentration; 48 hours
SR = assay: NCI in vitro 60-cell drug screen (SRB assay); type: cell-based; conditions: SR (Leukemia); 10^-5 molar concentration; 48 hours
A549/ATCC = assay: NCI in vitro 60-cell drug screen (SRB assay); type: cell-based; conditions: A549/ATCC (Non-small cell lung cancer); 10^-5 molar concentration; 48 hours
HOP-62 = assay: NCI in vitro 60-cell drug screen (SRB assay); type: cell-based; conditions: HOP-62 (Non-small cell lung cancer); 10^-5 molar concentration; 48 hours
NCI-H226 = assay: NCI in vitro 60-cell drug screen (SRB assay); type: cell-based; conditions: NCI-H226 (Non-small cell lung cancer); 10^-5 molar concentration; 48 hours
NCI-H322M = assay: NCI in vitro 60-cell drug screen (SRB assay); type: cell-based; conditions: NCI-H322M (Non-small cell lung cancer); 10^-5 molar concentration; 48 hours
KM12 = assay: NCI in vitro 60-cell drug screen (SRB assay); type: cell-based; conditions: KM12 (Colon cancer); 10^-5 molar concentration; 48 hours
SW-620 = assay: NCI in vitro 60-cell drug screen (SRB assay); type: cell-based; conditions: SW-620 (Colon cancer); 10^-5 molar concentration; 48 hours
SF-295 = assay: NCI in vitro 60-cell drug screen (SRB assay); type: cell-based; conditions: SF-295 (CNS cancer); 10^-5 molar concentration; 48 hours
SF-539 = assay: NCI in vitro 60-cell drug screen (SRB assay); type: cell-based; conditions: SF-539 (CNS cancer); 10^-5 molar concentration; 48 hours
SNB-19 = assay: NCI in vitro 60-cell drug screen (SRB assay); type: cell-based; conditions: SNB-19 (CNS cancer); 10^-5 molar concentration; 48 hours
MALME-3M = assay: NCI in vitro 60-cell drug screen (SRB assay); type: cell-based; conditions: MALME-3M (Melanoma); 10^-5 molar concentration; 48 hours
M14 = assay: NCI in vitro 60-cell drug screen (SRB assay); type: cell-based; conditions: M14 (Melanoma); 10^-5 molar concentration; 48 hours
SK-MEL-2 = assay: NCI in vitro 60-cell drug screen (SRB assay); type: cell-based; conditions: SK-MEL-2 (Melanoma); 10^-5 molar concentration; 48 hours
SK-MEL-5 = assay: NCI in vitro 60-cell drug screen (SRB assay); type: cell-based; conditions: SK-MEL-5 (Melanoma); 10^-5 molar concentration; 48 hours
IGROV1 = assay: NCI in vitro 60-cell drug screen (SRB assay); type: cell-based; conditions: IGROV1 (Ovarian cancer); 10^-5 molar concentration; 48 hours
OVCAR-5 = assay: NCI in vitro 60-cell drug screen (SRB assay); type: cell-based; conditions: OVCAR-5 (Ovarian cancer); 10^-5 molar concentration; 48 hours
OVCAR-8 = assay: NCI in vitro 60-cell drug screen (SRB assay); type: cell-based; conditions: OVCAR-8 (Ovarian cancer); 10^-5 molar concentration; 48 hours
ACHN = assay: NCI in vitro 60-cell drug screen (SRB assay); type: cell-based; conditions: ACHN (Renal cancer); 10^-5 molar concentration; 48 hours
SN12C = assay: NCI in vitro 60-cell drug screen (SRB assay); type: cell-based; conditions: SN12C (Renal cancer); 10^-5 molar concentration; 48 hours
DU-145 [2] = assay: NCI in vitro 60-cell drug screen (SRB assay); type: cell-based; conditions: DU-145 (Prostate cancer); 10^-5 molar concentration; 48 hours
BT-549 = assay: NCI in vitro 60-cell drug screen (SRB assay); type: cell-based; conditions: BT-549 (Breast cancer); 10^-5 molar concentration; 48 hours
60 cell lines = assay: NCI in vitro 60-cell drug screen (SRB assay), whole panel statistics; conditions: mean over the cell panel; 10^-5 molar concentration; 48 hours

SMILES: COc1nc2ccccc2c2c(=O)c3cc(Cl)ccc3sc12 [Compound 5, 10-Chloro-6-methoxy-12H-thiochromeno[2,3-c]quinolin-12-one]
- IC50 (DU-145 [1]): 10.8 ± 6.55 µM
- IC50 (PC-3): 3.89 ± 0.54 µM
- Growth percent (RPMI-8226): 102.86%
- Growth percent (SR): 88.18%
- Growth percent (A549/ATCC): 100.46%
- Growth percent (HOP-62): 69.64%
- Growth percent (NCI-H226): 98.57%
- Growth percent (NCI-H322M): 90.77%
- Growth percent (KM12): 98.03%
- Growth percent (SW-620): 103.05%
- Growth percent (SF-295): 86.35%
- Growth percent (SF-539): 86.13%
- Growth percent (SNB-19): 89.36%
- Growth percent (MALME-3M): 94.19%
- Growth percent (M14): 88.40%
- Growth percent (SK-MEL-2): 105.52%
- Growth percent (SK-MEL-5): 99.74%
- Growth percent (IGROV1): 71.44%
- Growth percent (OVCAR-5): 106.70%
- Growth percent (OVCAR-8): 91.82%
- Growth percent (ACHN): 74.89%
- Growth percent (SN12C): 98.74%
- Growth percent (DU-145 [2]): 104.27%
- Growth percent (BT-549): 94.85%
- Growth percent, Mean (60 cell lines): 92.10%

SMILES: O=c1c2cc(Cl)ccc2sc2c(N3CCN(Cc4ccccc4)CC3)nc3ccccc3c12 [Compound 11, 6-(4-Benzylpiperazin-1-yl)-10-chloro-12H-thiochromeno[2,3-c]q uinolin-12-one]
- IC50 (DU-145 [1]): > 15 µM
- IC50 (PC-3): > 15 µM
- Growth percent (RPMI-8226): 96.63%
- Growth percent (SR): 85.15%
- Growth percent (A549/ATCC): 106.37%
- Growth percent (HOP-62): 87.72%
- Growth percent (NCI-H226): 88.98%
- Growth percent (NCI-H322M): 88.92%
- Growth percent (KM12): 107.75%
- Growth percent (SW-620): 93.08%
- Growth percent (SF-295): 94.34%
- Growth percent (SF-539): 108.56%
- Growth percent (SNB-19): 95.52%
- Growth percent (MALME-3M): 112.36%
- Growth percent (M14): 93.00%
- Growth percent (SK-MEL-2): 107.37%
- Growth percent (SK-MEL-5): 98.38%
- Growth percent (IGROV1): 93.49%
- Growth percent (OVCAR-5): 111.92%
- Growth percent (OVCAR-8): 98.54%
- Growth percent (ACHN): 96.39%
- Growth percent (SN12C): 97.70%
- Growth percent (DU-145 [2]): 111.61%
- Growth percent (BT-549): 114.05%
- Growth percent, Mean (60 cell lines): 96.19%

SMILES: O=c1c2ccc(Cl)cc2sc2c(Cl)nc3ccccc3c12 [Compound 3, 6,9-Dichloro-12H-thiochromeno[2,3-c]quinolin-12-one]
- IC50 (DU-145 [1]): > 15 µM
- IC50 (PC-3): > 15 µM
- Growth percent (RPMI-8226): 100.19%
- Growth percent (SR): 89.02%
- Growth percent (A549/ATCC): 104.74%
- Growth percent (HOP-62): 82.02%
- Growth percent (NCI-H226): 83.41%
- Growth percent (NCI-H322M): 100.12%
- Growth percent (KM12): 111.27%
- Growth percent (SW-620): 99.06%
- Growth percent (SF-295): 90.26%
- Growth percent (SF-539): 89.02%
- Growth percent (SNB-19): 107.89%
- Growth percent (MALME-3M): 95.87%
- Growth percent (M14): 106.18%
- Growth percent (SK-MEL-2): 95.54%
- Growth percent (SK-MEL-5): 97.42%
- Growth percent (IGROV1): 96.06%
- Growth percent (OVCAR-5): 100.07%
- Growth percent (OVCAR-8): 101.62%
- Growth percent (ACHN): 86.84%
- Growth percent (SN12C): 95.92%
- Growth percent (DU-145 [2]): 114.27%
- Growth percent (BT-549): 110.01%
- Growth percent, Mean (60 cell lines): 98.11%

SMILES: CN(C)c1nc2ccccc2c2c(=O)c3cc(Cl)ccc3sc12 [Compound 6, 10-Chloro-6-dimethylamino-12H-thiochromeno[2,3-c]quinolin-12-one]
- IC50 (DU-145 [1]): > 15 µM
- IC50 (PC-3): > 15 µM
- Growth percent (RPMI-8226): 98.20%
- Growth percent (SR): 95.68%
- Growth percent (A549/ATCC): 94.16%
- Growth percent (HOP-62): 43.62%
- Growth percent (NCI-H226): 96.20%
- Growth percent (NCI-H322M): 83.74%
- Growth percent (KM12): 96.40%
- Growth percent (SW-620): 105.18%
- Growth percent (SF-295): 48.82%
- Growth percent (SF-539): 72.72%
- Growth percent (SNB-19): 76.46%
- Growth percent (MALME-3M): 89.70%
- Growth percent (M14): 94.36%
- Growth percent (SK-MEL-2): 87.26%
- Growth percent (SK-MEL-5): 97.92%
- Growth percent (IGROV1): 68.16%
- Growth percent (OVCAR-5): 98.05%
- Growth percent (OVCAR-8): 68.53%
- Growth percent (ACHN): 64.81%
- Growth percent (SN12C): 99.49%
- Growth percent (DU-145 [2]): 92.93%
- Growth percent (BT-549): 92.96%
- Growth percent, Mean (60 cell lines): 80.59%

SMILES: O=c1c2cc(Cl)ccc2sc2c(O)nc3ccccc3c12 [Compound 4, 10-Chloro-6-hydroxy-12H-thiochromeno[2,3-c]quinolin-12-one]
- IC50 (DU-145 [1]): > 15 µM
- IC50 (PC-3): 10.1 ± 1.81 µM
- Growth percent (RPMI-8226): 100.99%
- Growth percent (SR): 96.00%
- Growth percent (A549/ATCC): 95.25%
- Growth percent (HOP-62): 90.80%
- Growth percent (NCI-H226): 99.58%
- Growth percent (NCI-H322M): 90.87%
- Growth percent (KM12): 102.45%
- Growth percent (SW-620): 101.39%
- Growth percent (SF-295): 99.93%
- Growth percent (SF-539): 93.21%
- Growth percent (SNB-19): 101.37%
- Growth percent (MALME-3M): 93.26%
- Growth percent (M14): 94.76%
- Growth percent (SK-MEL-2): 103.04%
- Growth percent (SK-MEL-5): 100.69%
- Growth percent (IGROV1): 78.35%
- Growth percent (OVCAR-5): 111.17%
- Growth percent (OVCAR-8): 100.55%
- Growth percent (ACHN): 95.52%
- Growth percent (SN12C): 101.14%
- Growth percent (DU-145 [2]): 99.80%
- Growth percent (BT-549): 85.17%
- Growth percent, Mean (60 cell lines): 97.17%

SMILES: O=c1c2cc(Cl)ccc2sc2c(N3CCN(c4ccccc4)CC3)nc3ccccc3c12 [Compound 12, 10-Chloro-6-(4-phenylpiperazin-1-yl)-12H-thiochromeno[2,3-c] quinolin-12-one]
- IC50 (DU-145 [1]): > 15 µM
- IC50 (PC-3): > 15 µM
- Growth percent (RPMI-8226): 99.93%
- Growth percent (SR): 103.11%
- Growth percent (A549/ATCC): 98.54%
- Growth percent (HOP-62): 86.00%
- Growth percent (NCI-H226): 87.10%
- Growth percent (NCI-H322M): 84.41%
- Growth percent (KM12): 113.15%
- Growth percent (SW-620): 100.20%
- Growth percent (SF-295): 99.23%
- Growth percent (SF-539): 100.06%
- Growth percent (SNB-19): 105.57%
- Growth percent (MALME-3M): 121.84%
- Growth percent (M14): 104.02%
- Growth percent (SK-MEL-2): 104.26%
- Growth percent (SK-MEL-5): 103.57%
- Growth percent (IGROV1): 91.38%
- Growth percent (OVCAR-5): 108.10%
- Growth percent (OVCAR-8): 90.34%
- Growth percent (ACHN): 94.99%
- Growth percent (SN12C): 102.66%
- Growth percent (DU-145 [2]): 111.15%
- Growth percent (BT-549): 123.95%
- Growth percent, Mean (60 cell lines): 99.30%

SMILES: O=c1c2cc(Cl)ccc2sc2c(N3CCN(CCO)CC3)nc3ccccc3c12 [Compound 10, 10-Chloro-6-(4-(2-hydroxyethyl)piperazin-1-yl)-12H-thiochrom eno[2,3-c]quinolin-12one]
- IC50 (DU-145 [1]): > 15 µM
- IC50 (PC-3): > 15 µM
- Growth percent (RPMI-8226): 84.87%
- Growth percent (SR): 79.07%
- Growth percent (A549/ATCC): 95.49%
- Growth percent (HOP-62): 67.83%
- Growth percent (NCI-H226): 89.29%
- Growth percent (NCI-H322M): 82.85%
- Growth percent (KM12): 101.86%
- Growth percent (SW-620): 88.11%
- Growth percent (SF-295): 100.32%
- Growth percent (SF-539): 86.18%
- Growth percent (SNB-19): 84.81%
- Growth percent (MALME-3M): 119.20%
- Growth percent (M14): 101.70%
- Growth percent (SK-MEL-2): 104.06%
- Growth percent (SK-MEL-5): 94.13%
- Growth percent (IGROV1): 71.67%
- Growth percent (OVCAR-5): 95.70%
- Growth percent (OVCAR-8): 84.95%
- Growth percent (ACHN): 83.05%
- Growth percent (SN12C): 86.81%
- Growth percent (DU-145 [2]): 96.26%
- Growth percent (BT-549): 90.05%
- Growth percent, Mean (60 cell lines): 84.06%
